Assay results reported in ChEMBL document CHEMBL1795257, “Synthesis of new opioid derivatives with a propellane skeleton and their pharmacology: part 1” (Bioorg Med Chem Lett, 2011).
The source made the active and inactive calls. No cut-off for these calls is given here.

Tests used:
Cavia porcellus = species on record: Cavia porcellus; test: Selectivity ratio of Ki for delta opioid receptor in guinea pig forebrain homogenate to Ki for kappa opioid receptor in guinea pig cerebellum homogenate; format: tissue-based
[1] = Displacement of [3H]NTI from delta opioid receptor in guinea pig forebrain homogenate by scintillation counting; format: tissue-based, Cavia porcellus, Brain
[2] = biological target: Kappa-type opioid receptor (Cavia porcellus, UniProt P41144); test: Displacement of [3H]U69593 from kappa opioid receptor in guinea pig cerebellum homogenate by scintillation counting; format: tissue-based
Sequence of Kappa-type opioid receptor (P41144 whole entry): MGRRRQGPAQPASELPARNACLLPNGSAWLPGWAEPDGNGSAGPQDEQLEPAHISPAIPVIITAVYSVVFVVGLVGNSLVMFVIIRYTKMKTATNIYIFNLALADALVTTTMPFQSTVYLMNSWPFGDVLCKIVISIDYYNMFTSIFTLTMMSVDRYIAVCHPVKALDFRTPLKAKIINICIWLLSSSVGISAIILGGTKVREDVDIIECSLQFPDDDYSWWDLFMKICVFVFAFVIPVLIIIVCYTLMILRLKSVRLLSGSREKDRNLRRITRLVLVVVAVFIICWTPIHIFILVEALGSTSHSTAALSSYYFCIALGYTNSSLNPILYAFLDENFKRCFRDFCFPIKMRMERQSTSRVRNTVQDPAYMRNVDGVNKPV

Mu-type opioid receptor = Mu-type opioid receptor (Cavia porcellus, UniProt P97266); test: Displacement of [3H]DAMGO from mu opioid receptor in guinea pig forebrain homogenate by scintillation counting; format: tissue-based, Brain
Sequence of Mu-type opioid receptor (P97266 whole entry): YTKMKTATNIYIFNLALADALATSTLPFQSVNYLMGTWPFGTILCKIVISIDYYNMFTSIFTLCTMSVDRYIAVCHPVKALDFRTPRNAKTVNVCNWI

Mus musculus [3] = test: Antinociceptive activity in sc dosed mouse assessed as inhibition of acetic acid-induced writhing; format: functional
Mus musculus [4] = test: Antinociceptive activity in sc dosed mouse assessed as inhibition of acetic acid-induced writhing in presence of kappa opioid antagonist nor-BNI; format: functional, organism-based
Mus musculus [5] = test: Antinociceptive activity in sc dosed mouse assessed as inhibition of acetic acid-induced writhing in presence of mu opioid […] naloxone; format: functional, organism-based

| Structure (SMILES) | Ratio Ki (Cavia porcellus) | Ki [1] [nM] | Ki [2] [nM] | Ki (Mu-type opioid receptor) [nM] | ED50 (Mus musculus [3]) [mg/kg] | Activity (Mus musculus [4]) | Activity (Mus musculus [5]) | Activity (Mus musculus [3]) |
| --- | --- | --- | --- | --- | --- | --- | --- | --- |
| O=C1CC23CCN(CC4CC4)C(Cc4ccc(O)cc42)C32CCC1O2 (centres undefined) | 30 | – | – | – | – | – | – | – |
| CN1CC[C@]23c4c5ccc(O)c4O[C@H]2C(=O)CC[C@@]3(O)[C@H]1C5 [OXYMORPHONE] | – | 42.7 | – | – | – | – | – | – |
| CN1CCC23CC(=O)CCC2(Cc2ccc(O)cc23)C1 (centres undefined) | 1.7 | 441 | 255 | 3.6 | – | – | – | – |
| Oc1ccc2c3c1OC1C4(O)CC[C@@]5(OC4)[C@@H](C2)N(CC2CC2)CC[C@]315 (some centres undefined) | 30 | 10.3 | 0.34 | 0.16 | – | – | – | – |
| O=C1CC[C@@]2(O)[C@H]3Cc4ccc(O)cc4[C@@]2(CCN3CC2CC2)C1 | 48 | 1.82 | 0.038 | 0.14 | – | – | – | – |
| O=C1CCC23Cc4ccc(O)cc4C2(CCN(CC2(O)CC2)C3)C1 (centres undefined) | 23 | 500 | 21.7 | 77.7 | – | – | – | – |
| O=C1CCC23Cc4ccc(O)cc4C2(CCN(CC2CC2)C3)C1 (centres undefined) | 26 | 448 | 17.4 | 58.2 | 0.86 | inactive | inactive | – |
| CCC12CCN(CC3(O)CC3)[C@H](Cc3ccc(O)cc31)C2(C)C | – | 0.9 | – | 0.2 | – | – | – | – |
| CN1CC[C@]23c4c5ccc(O)c4O[C@H]2[C@@H](O)C=C[C@H]3[C@H]1C5 | – | – | – | – | – | – | – | Active |
| O=C1CC[C@@]2(O)[C@H]3Cc4ccc(O)c5c4[C@@]2(CCN3CC2CC2)[C@H]1O5 | 56 | – | – | – | – | – | – | – |
| CC(C)=CCN1CC[C@@]2(C)c3cc(O)ccc3C[C@@H]1[C@@H]2C | 6.4 | 23.1 | 3.6 | 4.6 | – | – | – | – |
| OCC12CC[C@@]3(O1)[C@H]1Cc4ccc(O)cc4[C@@]3(CCN1CC1CC1)C2 | 35 | – | – | – | – | – | – | – |
